This test deals with T1, hVR1 (Homo sapiens, UniProt Q8NER1).
T1 construct: expressed in transfected cells
Briefly: hVR1 FLIPR (Fluorometric Image Plate Reader) screening assay. The class given is cell-based. To be noted: transfected CHO cells stably expressing hVR1; inhibition of calcium increase after agonist (50 nM capsaicin or MES buffer pH 5.2); agonist not given. On the procedure: 1. hVR1 FLIPR (Fluorometric Image Plate Reader) Screening Assay
Transfected CHO cells, stably expessing hVR1 (15,000 cells/well) are seeded in 50 ul media in a black clear bottom 384 plate (Greiner) and grown in a humidified incubator (37° C., 2% CO2), 24-30 hours prior to experiment.
Subsequently, the media is removed from the cell plate by inversion and 2 μM Fluo-4 is added using a multidrop (Labsystems). Following the 40 minutes dye incubation in the dark at 37° C. and 2% CO2, the extracellular dye present is washed away using an EMBLA (Scatron), leaving the cells in 40 ul of assay buffer (1×HBSS, 10 mM D-Glucose, 1 mM CaCl2, 10 mM HEPES, 10×7.5% NaHCO3 and 2.5 mM Probenecid).
FLIPR Assay—IC50 Determination Protocol
For IC50 determinations the fluorescence is read using FLIPR filter 1 (em […]). A cellular baseline recording is taken for 30 seconds, followed by a 20 μl addition of 10, titrated half-log concentrations of the test compound, yielding cellular concentration ranging from 3 μM to 0.1 nM. […] This consequently leading to a reduction in fluorescence signal and providing a reduced fluorescence reading, compared with no compound, buffer controls. Data is exported by the FLIPR program as a sum of fluorescence calculated under the curve upon the addition of capsaicin. […]

By IC50 is commonly meant the point on the concentration scale where inhibition reaches its midpoint.

T1 sequence (Q8NER1 whole entry): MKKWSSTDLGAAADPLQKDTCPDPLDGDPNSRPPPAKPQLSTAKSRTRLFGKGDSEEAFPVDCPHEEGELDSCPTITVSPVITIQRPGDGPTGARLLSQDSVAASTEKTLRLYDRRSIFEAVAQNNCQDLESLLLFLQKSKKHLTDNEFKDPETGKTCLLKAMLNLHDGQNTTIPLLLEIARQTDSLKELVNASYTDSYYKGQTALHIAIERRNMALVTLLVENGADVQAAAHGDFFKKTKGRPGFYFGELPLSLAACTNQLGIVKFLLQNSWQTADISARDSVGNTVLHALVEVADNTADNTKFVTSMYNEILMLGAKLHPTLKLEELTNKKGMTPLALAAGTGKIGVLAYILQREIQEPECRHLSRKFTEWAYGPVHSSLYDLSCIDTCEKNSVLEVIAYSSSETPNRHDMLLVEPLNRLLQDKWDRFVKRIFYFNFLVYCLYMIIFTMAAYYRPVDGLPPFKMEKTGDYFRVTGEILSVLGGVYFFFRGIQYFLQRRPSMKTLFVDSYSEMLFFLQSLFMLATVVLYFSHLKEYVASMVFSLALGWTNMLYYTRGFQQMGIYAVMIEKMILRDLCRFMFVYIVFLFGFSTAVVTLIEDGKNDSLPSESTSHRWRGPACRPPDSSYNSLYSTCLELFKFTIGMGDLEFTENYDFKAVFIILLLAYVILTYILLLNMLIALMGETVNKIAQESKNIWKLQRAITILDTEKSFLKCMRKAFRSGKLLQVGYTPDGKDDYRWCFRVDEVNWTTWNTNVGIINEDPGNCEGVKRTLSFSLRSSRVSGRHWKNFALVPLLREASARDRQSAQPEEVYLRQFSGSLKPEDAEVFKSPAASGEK

Consider `O=S(=O)(NCc1cccc(C(F)(F)F)c1)c1ccc2sc(CO)nc2c1` [Compound 5, 2-(hydroxymethyl)-N-[3-(trifluoromethyl)benzyl]-1,3-benzothiazole-5-sulfonamide], for which the IC50 came to 2870 nM.

The values are drawn from patent US20080114041A1, “Benzothiazolesulfonamides” (AstraZeneca AB, priority 2004, published 2008).
